According to the supplement of paper PMC10307832:

What was measured:
Experiment in all cases: relative viability (nuclei count vs DMSO), 5 days (fraction); higher = more cells survive
XMD14-99 + Dasatinib = compound: CN1CCN(CC1)C2=CC(=C(C=C2)NC3=NC(=C(S3)C(=O)C4=C(C=CC=C4Cl)Cl)N)OC [XMD14-99] + Cc1nc(Nc2ncc(C(=O)Nc3c(C)cccc3Cl)s2)cc(N2CCN(CCO)CC2)n1 [Dasatinib] (partner 0.075 µM)
Outline: (§1)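 Relative viability was taken as the ratio of nuclei in treated wells to nuclei in vehicle wells. Lung cancer cell lines in 1536-well plates received compounds by pin tool one day after seeding, either one drug alone or a fixed anchor-drug dose plus five library-drug doses (not always all listed) in √10 steps. Nuclei were counted on 4× images after 5 days of treatment, and values are medians of duplicate plates.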

AZD1208 + Trametinib = compound: N[C@@H]1CCCN(c2c(/C=C3\SC(=O)NC3=O)cccc2-c2ccccc2)C1 [AZD1208] + CC(=O)Nc1cccc(-n2c(=O)n(C3CC3)c(=O)c3c(Nc4ccc(I)cc4F)n(C)c(=O)c(C)c32)c1 [Trametinib] (partner 0.02 µM)
Outline: as §1

XMD14-99 + Bortezomib = compound: CN1CCN(CC1)C2=CC(=C(C=C2)NC3=NC(=C(S3)C(=O)C4=C(C=CC=C4Cl)Cl)N)OC [XMD14-99] + CC(C)C[C@H](NC(=O)[C@H](Cc1ccccc1)NC(=O)c1cnccn1)B(O)O [Bortezomib] (partner 0.002 µM)
Outline: as §1

AZD1208 + Foretinib = compound: N[C@@H]1CCCN(c2c(/C=C3\SC(=O)NC3=O)cccc2-c2ccccc2)C1 [AZD1208] + COc1cc2c(Oc3ccc(NC(=O)C4(C(=O)Nc5ccc(F)cc5)CC4)cc3F)ccnc2cc1OCCCN1CCOCC1 [Foretinib] (partner 0.25 µM)
Outline: as §1

Row | Cell Line | relative viability (XMD14-99 + Dasatinib; first compound 0.08 µM) | relative viability (XMD14-99 + Dasatinib; first compound 0.8 µM) | relative viability (XMD14-99 + Dasatinib; first compound 2.53 µM) | relative viability (XMD14-99 + Dasatinib; first compound 8 µM) | relative viability (AZD1208 + Trametinib; first compound 0.08 µM) | relative viability (AZD1208 + Trametinib; first compound 0.253 µM) | relative viability (AZD1208 + Trametinib; first compound 0.8 µM) | relative viability (AZD1208 + Trametinib; first compound 2.53 µM) | relative viability (AZD1208 + Trametinib; first compound 8 µM) | relative viability (XMD14-99 + Bortezomib; first compound 0.08 µM) | relative viability (XMD14-99 + Bortezomib; first compound 0.8 µM) | relative viability (XMD14-99 + Bortezomib; first compound 2.53 µM) | relative viability (XMD14-99 + Bortezomib; first compound 8 µM) | relative viability (AZD1208 + Foretinib; first compound 0.08 µM) | relative viability (AZD1208 + Foretinib; first compound 0.253 µM) | relative viability (AZD1208 + Foretinib; first compound 0.8 µM) | relative viability (AZD1208 + Foretinib; first compound 2.53 µM) | relative viability (AZD1208 + Foretinib; first compound 8 µM)
1 | NCI-H1975 | 0.307 | 0.304 | 0.312 | 0.248 | 0.304 | 0.341 | 0.283 | 0.36 | 0.249 | 0.388 | 0.359 | 0.347 | 0.272 | 1.06 | 0.959 | 0.855 | 0.853 | 0.972
2 | CAL-12T | 0.34 | 0.449 | 0.356 | 0.248 | 0.377 | 0.331 | 0.339 | 0.332 | 0.251 | 1.07 | 0.954 | 0.899 | 0.634 | 1.1 | 1.28 | 1.04 | 1.35 | 1.38
3 | NCI-H1623 | 0.542 | 0.515 | 0.516 | 0.504 | – | – | – | – | – | – | – | – | – | 0.838 | 0.763 | 0.801 | 0.837 | 0.771
4 | HCC-44 | – | – | – | – | 1.1 | 1.12 | 1.02 | 1.1 | 1.05 | 0.882 | 0.823 | 0.933 | 0.806 | – | – | – | – | –
5 | EKVX | 0.497 | 0.561 | 0.5 | 0.373 | 0.35 | 0.387 | 0.306 | 0.309 | 0.45 | 0.965 | 0.998 | 0.983 | 0.736 | 0.798 | 0.744 | 0.876 | 0.858 | 0.913
6 | NCI-H1651 | 0.565 | 0.435 | 0.368 | 0.257 | 0.87 | 0.81 | – | 0.742 | 0.746 | 0.964 | 0.938 | 0.981 | 0.811 | 0.637 | 0.827 | 0.665 | 0.768 | 0.588
7 | NCI-H1944 | 0.193 | 0.239 | 0.222 | 0.201 | 0.402 | 0.433 | 0.359 | 0.328 | 0.283 | – | – | – | – | 0.829 | 0.838 | 0.774 | 0.688 | 0.571
8 | NCI-H1703 | – | – | – | – | – | – | – | – | – | 0.334 | 0.235 | 0.268 | 0.211 | 0.268 | 0.333 | 0.275 | 0.301 | 0.335
9 | Calu-6 | – | – | – | – | – | – | – | – | – | 0.944 | 0.875 | 0.85 | 0.598 | 0.861 | 0.938 | 0.946 | 0.867 | 0.747
10 | EBC-1 | – | – | – | – | – | – | – | – | – | 0.57 | 0.503 | 0.384 | 0.285 | 0.0932 | 0.0985 | 0.0803 | 0.0927 | 0.103
11 | A-427 | 0.624 | 0.651 | 0.545 | 0.479 | 0.622 | 0.71 | 0.6 | 0.619 | 0.537 | 0.933 | 0.924 | 0.77 | 0.829 | 0.924 | 1.01 | 0.905 | 0.865 | 0.813
12 | NCI-H2405 | 0.21 | 0.204 | 0.209 | 0.173 | 0.582 | 0.56 | 0.562 | 0.528 | 0.453 | 1.06 | 0.99 | 0.9 | 0.874 | 1.03 | 1 | 0.991 | 1.06 | 0.993
13 | NCI-H1355 | 0.777 | 0.702 | 0.655 | 0.476 | 0.429 | 0.391 | 0.416 | 0.401 | 0.366 | 1.31 | 1.2 | 1.15 | 0.898 | 0.973 | 1 | 0.878 | 0.84 | 0.784
14 | NCI-H358 | 0.157 | 0.175 | 0.151 | 0.141 | 0.118 | 0.109 | 0.12 | 0.12 | 0.102 | – | – | – | – | 0.594 | 0.692 | 0.573 | 0.698 | 0.522
15 | RERF-LC-KJ | 0.883 | 0.869 | 0.764 | 0.608 | 0.903 | 0.844 | 0.727 | 0.776 | 0.548 | 1.07 | 1.18 | 1.08 | 0.852 | 0.865 | 0.859 | 0.682 | 0.7 | 0.546
16 | NCI-H23 | 0.787 | 0.777 | 0.724 | 0.636 | 0.361 | 0.301 | 0.272 | 0.347 | 0.303 | 0.95 | 0.908 | 1.12 | 0.728 | 0.914 | 0.648 | 0.9 | 0.967 | 0.748
17 | HOP-62 | 0.635 | 0.658 | 0.656 | 0.496 | 0.372 | 0.381 | 0.379 | 0.377 | 0.322 | 0.604 | 0.694 | 0.863 | 0.605 | 1.03 | 1.16 | 1.02 | 1.03 | 1.06
18 | HARA | 0.274 | 0.249 | 0.273 | 0.189 | 0.551 | 0.743 | 0.761 | 0.542 | 0.35 | 1.15 | 1.14 | 0.922 | 0.867 | 0.905 | 0.709 | 0.827 | 0.539 | 0.804
19 | PC-14 | 0.254 | 0.226 | 0.224 | 0.11 | 0.681 | 0.704 | 0.512 | 0.662 | 0.524 | 0.831 | 0.713 | 0.735 | 0.698 | 1.02 | 1.06 | 1.06 | 1.04 | 0.999
20 | NCI-H1755 | 0.404 | 0.405 | 0.4 | 0.369 | 0.755 | 0.841 | 0.779 | 0.705 | 0.647 | 0.854 | 0.947 | 0.859 | 0.795 | 0.908 | 0.892 | 0.851 | 0.861 | 0.787
